This note sets out measurements from patent publication US7524869B2, “Taxanes having a C10 ester substituent” (Florida State University Research Foundation, Inc., priority 2000, dated 2009).

The subject of this assay is HCT116. In words: In vitro cytotoxicity measured by the cell colony formation assay. The format is cell-based. The conditions noted are these: HCT116 cells, 72 h drug incubation, colonies counted after 7 days; ID50 = drug concentration producing 50% inhibition of colony formation; read-out: IN VITRO ID 50 (nm) HCT116. As for the experimental part:
In Vitro Cytotoxicity Measured by the Cell Colony Formation Assay
Four hundred cells (HCT116) were plated in 60 mm Petri dishes containing 2.7 mL of medium (modified McCoy's 5a medium containing 10% fetal bovine serum and 100 units/mL penicillin and 100 µg/mL streptomycin). The cells were incubated in a CO2 incubator at 37° C. for 5 h for attachment to the bottom of Petri dishes. The compounds identified in Example 2 were made up fresh in medium at ten times the final concentration, and then 0.3 mL of this stock solution was added to the 2.7 mL of medium in the dish. The cells were then incubated with drugs for 72 h at 37° C. At the end of incubation the drug-containing media were decanted, the dishes were rinsed with 4 mL of Hank's Balance Salt Solution (HBSS), 5 mL of fresh medium was added, and the dishes were returned to the incubator for colony formation. The cell colonies were counted using a colony counter after incubation for 7 days.

As to `CCC(=O)O[C@H]1C(=O)[C@@]2(C)C([C@H](OC(=O)c3ccccc3)[C@]3(O)C[C@H](OC(=O)[C@H](O)[C@@H](NC(=O)c4ccccc4)c4ccccc4)C(C)=C1C3(C)C)[C@]1(OC(C)=O)CO[C@@H]1C[C@@H]2O` (some centres unmarked) [Compound 0748], the IC50 is less than 10 nM.
Next, `CCC(=O)O[C@H]1C(=O)[C@@]2(C)C([C@H](OC(=O)c3ccccc3)[C@]3(O)C[C@H](OC(=O)[C@H](O)[C@@H](NC(=O)c4ccccc4)c4ccco4)C(C)=C1C3(C)C)[C@]1(OC(C)=O)CO[C@@H]1C[C@@H]2O` (some centres unmarked) [Compound 0663]: less than 1 nM; `C/C=C/C(=O)N[C@@H](c1cccs1)[C@@H](O)C(=O)O[C@H]1C[C@@]2(O)[C@@H](OC(=O)c3ccccc3)C3[C@](C)(C(=O)[C@H](OC(=O)C4CC4)C(=C1C)C2(C)C)[C@@H](O)C[C@H]1OC[C@@]31OC(C)=O` (some centres unmarked) [Compound 3513]: less than 1 nM; `CCC(=O)O[C@H]1C(=O)[C@@]2(C)C([C@H](OC(=O)c3ccccc3)[C@]3(O)C[C@H](OC(=O)[C@H](O)[C@@H](NC(=O)OC(C)(C)C)c4cccs4)C(C)=C1C3(C)C)[C@]1(OC(C)=O)CO[C@@H]1C[C@@H]2O` (some centres unmarked) [Compound 0550]: less than 10 nM.
As for `CCC(=O)O[C@H]1C(=O)[C@@]2(C)C([C@H](OC(=O)c3ccccc3)[C@]3(O)C[C@H](OC(=O)[C@H](O)[C@@H](NC(=O)OC(C)(C)C)c4ccccn4)C(C)=C1C3(C)C)[C@]1(OC(C)=O)CO[C@@H]1C[C@@H]2O` (some centres unmarked) [Compound 0503], the IC50 is less than 1 nM.
Take `CCCC(=O)OC1C(=O)C2(C)C(O)CC3OCC3(OC(C)=O)C2C(OC(=O)c2ccccc2)C2(O)CC(OC(=O)C(O)C(NC(=O)OC(C)(C)C)c3ccccc3)C(C)=C1C2(C)C` (centres unmarked) [Compound 1060]: the IC50 is less than 1 nM.
For `CCCC(=O)N[C@@H](c1ccco1)[C@@H](O)C(=O)O[C@H]1C[C@@]2(O)[C@@H](OC(=O)c3ccccc3)C3[C@](C)(C(=O)[C@H](OC(=O)CC)C(=C1C)C2(C)C)[C@@H](O)C[C@H]1OC[C@@]31OC(C)=O` (some centres unmarked) [Compound 3219], the IC50 was less than 1 nM.
For the compound `CC(=O)OC12COC1CC(O)C1(C)C(=O)C(OC(=O)c3ccco3)C3=C(C)C(OC(=O)C(O)C(NC(=O)OC(C)(C)C)c4ccccn4)CC(O)(C(OC(=O)c4ccccc4)C21)C3(C)C` (centres unmarked) [Compound 2111], the IC50 was less than 1 nM.
Next, `CC(=O)O[C@@]12CO[C@@H]1C[C@H](O)[C@@]1(C)C(=O)[C@H](OC(=O)C(C)C)C3=C(C)[C@@H](OC(=O)[C@H](O)[C@@H](NC(=O)OC(C)(C)C)c4ccc([N+](=O)[O-])cc4)C[C@@](O)([C@@H](OC(=O)c4ccccc4)C12)C3(C)C` (some centres unmarked) [Compound 2320]: less than 1 nM.
`CCCC(=O)O[C@H]1C(=O)[C@@]2(C)C([C@H](OC(=O)c3ccccc3)[C@]3(O)C[C@H](OC(=O)[C@H](O)[C@@H](NC(=O)C=C(C)C)c4cccs4)C(C)=C1C3(C)C)[C@]1(OC(C)=O)CO[C@@H]1C[C@@H]2O` (some centres unmarked) [Compound 4344]: the IC50 was less than 1 nM.
Next, `CCCC(=O)O[C@H]1C(=O)[C@@]2(C)C([C@H](OC(=O)c3ccccc3)[C@]3(O)C[C@H](OC(=O)[C@H](O)[C@@H](NC(=O)OC(C)(C)C)c4ccsc4)C(C)=C1C3(C)C)[C@]1(OC(C)=O)CO[C@@H]1C[C@@H]2O` (some centres unmarked) [Compound 1011]: less than 1 nM; `CCC(=O)O[C@H]1C(=O)[C@@]2(C)C([C@H](OC(=O)c3ccccc3)[C@]3(O)C[C@H](OC(=O)[C@H](O)[C@H](C=C(C)C)NC(=O)OC(C)(C)C)C(C)=C1C3(C)C)[C@]1(OC(C)=O)CO[C@@H]1C[C@@H]2O` (some centres unmarked) [Compound 0499]: less than 1 nM.
As for `CC(=O)OC12COC1CC(O)C1(C)C(=O)C(OC(=O)c3ccco3)C3=C(C)C(OC(=O)C(O)C(C=C(C)C)NC(=O)OC(C)(C)C)CC(O)(C(OC(=O)c4ccccc4)C21)C3(C)C` (centres unmarked) [Compound 2101], the IC50 was less than 1 nM.
For `CCCC(=O)O[C@H]1C(=O)[C@@]2(C)C([C@H](OC(=O)c3ccccc3)[C@]3(O)C[C@H](OC(=O)[C@H](O)[C@@H](NC(=O)c4ccco4)c4cccs4)C(C)=C1C3(C)C)[C@]1(OC(C)=O)CO[C@@H]1C[C@@H]2O` (some centres unmarked) [Compound 3352], the IC50 was less than 1 nM.
As for `CCCC(=O)O[C@H]1C(=O)[C@@]2(C)C([C@H](OC(=O)c3ccccc3)[C@]3(O)C[C@H](OC(=O)[C@H](O)[C@@H](NC(=O)OCC(C)C)c4ccco4)C(C)=C1C3(C)C)[C@]1(OC(C)=O)CO[C@@H]1C[C@@H]2O` (some centres unmarked) [Compound 3110], the IC50 is less than 1 nM.
For the compound `CC(=O)O[C@@]12CO[C@@H]1C[C@H](O)[C@@]1(C)C(=O)[C@H](OC(=O)C=C(C)C)C3=C(C)[C@@H](OC(=O)[C@H](O)[C@@H](NC(=O)OC(C)(C)C)c4ccccc4)C[C@@](O)([C@@H](OC(=O)c4ccccc4)C12)C3(C)C` (some centres unmarked) [Compound 2520], the IC50 is less than 10 nM.
`CC(=O)O[C@@]12CO[C@@H]1C[C@H](O)[C@@]1(C)C(=O)[C@H](OC(=O)C3CC3)C3=C(C)[C@@H](OC(=O)[C@H](O)[C@@H](NC(=O)c4ccco4)c4cccs4)C[C@@](O)([C@@H](OC(=O)c4ccccc4)C12)C3(C)C` (some centres unmarked) [Compound 3297]: the IC50 is less than 1 nM.
Next, `CCCC(=O)O[C@H]1C(=O)[C@@]2(C)C([C@H](OC(=O)c3ccccc3)[C@]3(O)C[C@H](OC(=O)[C@H](O)[C@@H](NC(=O)OCC(C)C)c4ccsc4)C(C)=C1C3(C)C)[C@]1(OC(C)=O)CO[C@@H]1C[C@@H]2O` (some centres unmarked) [Compound 4834]: less than 10 nM; `CC(=O)O[C@@]12CO[C@@H]1C[C@H](O)[C@@]1(C)C(=O)[C@H](OC(=O)C=C(C)C)C3=C(C)[C@@H](OC(=O)[C@H](O)[C@@H](NC(=O)OC(C)(C)C)c4cccs4)C[C@@](O)([C@@H](OC(=O)c4ccccc4)C12)C3(C)C` (some centres unmarked) [Compound 2503]: less than 1 nM.
Consider `CC(=O)O[C@@]12CO[C@@H]1C[C@H](O)[C@@]1(C)C(=O)[C@H](OC(=O)C(C)C)C3=C(C)[C@@H](OC(=O)[C@H](O)[C@@H](NC(=O)OC(C)(C)C)C(C)C)C[C@@](O)([C@@H](OC(=O)c4ccccc4)C12)C3(C)C` (some centres unmarked) [Compound 2306], for which the IC50 was less than 10 nM.
For the compound `CC(=O)O[C@@]12CO[C@@H]1C[C@H](O)[C@@]1(C)C(=O)[C@H](OC(=O)C3CC3)C3=C(C)[C@@H](OC(=O)[C@H](O)[C@@H](NC(=O)OC(C)(C)C)c4ccccn4)C[C@@](O)([C@@H](OC(=O)c4ccccc4)C12)C3(C)C` (some centres unmarked) [Compound 2802], the IC50 was less than 1 nM.
Consider `CCCC(=O)O[C@H]1C(=O)[C@@]2(C)C([C@H](OC(=O)c3ccccc3)[C@]3(O)C[C@H](OC(=O)[C@H](O)[C@@H](NC(=O)OC(C)(C)C)c4ccco4)C(C)=C1C3(C)C)[C@]1(OC(C)=O)CO[C@@H]1C[C@@H]2O` (some centres unmarked) [Compound 0983], for which the IC50 was less than 1 nM.
`C/C=C/C(=O)N[C@@H](c1cccs1)[C@@H](O)C(=O)O[C@H]1C[C@@]2(O)[C@@H](OC(=O)c3ccccc3)C3[C@](C)(C(=O)[C@H](OC(=O)CC)C(=C1C)C2(C)C)[C@@H](O)C[C@H]1OC[C@@]31OC(C)=O` (some centres unmarked) [Compound 3494]: the IC50 is less than 1 nM.
Next, `CC(=O)O[C@@]12CO[C@@H]1C[C@H](O)[C@@]1(C)C(=O)[C@H](OC(=O)C3CC3)C3=C(C)[C@@H](OC(=O)[C@H](O)[C@@H](NC(=O)OC(C)(C)C)c4ccsc4)C[C@@](O)([C@@H](OC(=O)c4ccccc4)C12)C3(C)C` (some centres unmarked) [Compound 2794]: less than 1 nM.
Turning to `C/C=C/C(=O)O[C@H]1C(=O)[C@@]2(C)C([C@H](OC(=O)c3ccccc3)[C@]3(O)C[C@H](OC(=O)[C@H](O)[C@@H](NC(=O)OC(C)(C)C)c4ccsc4)C(C)=C1C3(C)C)[C@]1(OC(C)=O)CO[C@@H]1C[C@@H]2O` (some centres unmarked) [Compound 2408], the IC50 was less than 1 nM.
Next, `CC(=O)OC12COC1CC(O)C1(C)C(=O)C(OC(=O)c3cccs3)C3=C(C)C(OC(=O)C(O)C(NC(=O)OC(C)(C)C)c4ccc([N+](=O)[O-])cc4)CC(O)(C(OC(=O)c4ccccc4)C21)C3(C)C` (centres unmarked) [Compound 1911]: less than 10 nM.
In the case of `CCC(=O)O[C@H]1C(=O)[C@@]2(C)C([C@H](OC(=O)c3ccccc3)[C@]3(O)C[C@H](OC(=O)[C@H](O)[C@@H](NC(=O)OC(C)(C)C)c4ccoc4)C(C)=C1C3(C)C)[C@]1(OC(C)=O)CO[C@@H]1C[C@@H]2O` (some centres unmarked) [Compound 5495], the IC50 was less than 1 nM.
For the compound `C/C=C/C(=O)N[C@@H](c1cccs1)[C@@H](O)C(=O)O[C@H]1C[C@@]2(O)[C@@H](OC(=O)c3ccccc3)C3[C@](C)(C(=O)[C@H](OC(=O)CCC)C(=C1C)C2(C)C)[C@@H](O)C[C@H]1OC[C@@]31OC(C)=O` (some centres unmarked) [Compound 3595], the IC50 is less than 1 nM.
As for `CCCC(=O)O[C@H]1C(=O)[C@@]2(C)C([C@H](OC(=O)c3ccccc3)[C@]3(O)C[C@H](OC(=O)[C@H](O)[C@@H](NC(=O)c4cccs4)c4ccco4)C(C)=C1C3(C)C)[C@]1(OC(C)=O)CO[C@@H]1C[C@@H]2O` (some centres unmarked) [Compound 3656], the IC50 was less than 1 nM.
As to `CC(=O)O[C@@]12CO[C@@H]1C[C@H](O)[C@@]1(C)C(=O)[C@H](OC(=O)C3CC3)C3=C(C)[C@@H](OC(=O)[C@H](O)[C@@H](NC(=O)OC(C)C)c4cccs4)C[C@@](O)([C@@H](OC(=O)c4ccccc4)C12)C3(C)C` (some centres unmarked) [Compound 3071], the IC50 is less than 1 nM.
Next, `CC(=O)OC12COC1CC(O)C1(C)C(=O)C(OC(=O)c3cccs3)C3=C(C)C(OC(=O)C(O)C(NC(=O)OC(C)(C)C)c4ccncc4)CC(O)(C(OC(=O)c4ccccc4)C21)C3(C)C` (centres unmarked) [Compound 1954]: less than 1 nM; `CCC(=O)O[C@H]1C(=O)[C@@]2(C)C([C@H](OC(=O)c3ccccc3)[C@]3(O)C[C@H](OC(=O)[C@H](O)[C@@H](NC(=O)OC(C)(C)C)C4CC4)C(C)=C1C3(C)C)[C@]1(OC(C)=O)CO[C@@H]1C[C@@H]2O` (some centres unmarked) [Compound 0578]: less than 1 nM.
